In patent publication US4820694A, “Modifications of 3-O-demethylmycinose in macrocin and lactenocin” (priority 1986, dated 1989):
In brackets after ≈: the same amount, converted by molar mass. Where two headings read alike, the source gives them in different places.

Experiments:
[1] = system: Streptococcus pneumoniae Park I; assay: microbe, parasite or virus in culture; assay type: cell-based; settings: Streptococcus pneumoniae
Procedure: (§1) The MIC's in Table III were determined by standard agar-dilution assays. The MIC's in Table IV were obtained using conventional brothdilution microtiter tests.

[2] = system: Staphylococcus aureus S13E; assay: microbe, parasite or virus in culture; assay type: cell-based; settings: Staphylococcus aureus, S13E
Procedure: as §1

[3] = system: Streptococcus sp. 19F; assay: broth-dilution microtiter MIC test; assay type: cell-based; settings: Streptococcus, SP.19F
Procedure: as §1

[4] = system: Mycoplasma hyorhinis 29E; assay: broth-dilution microtiter MIC test; assay type: cell-based; settings: Mycoplasma, 29E
Procedure: as §1

[5] = system: Mycoplasma gallisepticum 15E; assay: broth-dilution microtiter MIC test; assay type: cell-based; settings: Mycoplasmoides gallisepticum, 15E
Procedure: as §1

[6] = system: Mycoplasma gallisepticum 29C; assay: broth-dilution microtiter MIC test; assay type: cell-based; settings: Mycoplasmoides gallisepticum, 29C
Procedure: as §1

[7] = system: Pasteurella multocida 22A; assay: broth-dilution microtiter MIC test; assay type: cell-based; settings: Pasteurella multocida, 22A; broth-dilution microtiter; read-out: MIC
Procedure: as §1

[8] = system: Pasteurella multocida 60A; assay: broth-dilution microtiter MIC test; assay type: cell-based; settings: Pasteurella multocida, 60A; broth-dilution microtiter; Avian isolate; read-out: MIC
Procedure: as §1

[9] = system: Pasteurella hemolytica 41D; assay: broth-dilution microtiter MIC test; assay type: cell-based; settings: Pasteurella, 41D; broth-dilution microtiter; read-out: MIC
Procedure: as §1

[10] = system: Staphylococcus aureus 19C; assay: broth-dilution microtiter MIC test; assay type: cell-based; settings: Staphylococcus aureus, 19C
Procedure: as §1

[11] = system: Pasteurella multocida 17E; assay: broth-dilution microtiter MIC test; assay type: cell-based; settings: Pasteurella multocida, 17E; broth-dilution microtiter; Bovine isolate; read-out: MIC
Procedure: as §1

[12] = system: Pasteurella multocida 68C; assay: broth-dilution microtiter MIC test; assay type: cell-based; settings: Pasteurella multocida, 68C; broth-dilution microtiter; read-out: MIC
Procedure: as §1

[13] = system: Bordetella bronchiseptica; assay: broth-dilution microtiter MIC test; assay type: cell-based; settings: Bordetella bronchiseptica; broth-dilution microtiter; read-out: MIC
Procedure: as §1

[14] = system: Pasteurella hemolytica 22C; assay: broth-dilution microtiter MIC test; assay type: cell-based; settings: Pasteurella, 22C; broth-dilution microtiter; read-out: MIC
Procedure: as §1

[15] = system: Pasteurella hemolytica 23C; assay: broth-dilution microtiter MIC test; assay type: cell-based; settings: Pasteurella, 23C; broth-dilution microtiter; read-out: MIC
Procedure: as §1

[16] = system: Mycoplasma synoviae 40A; assay: broth-dilution microtiter MIC test; assay type: cell-based; settings: Mycoplasmopsis synoviae, 40A
Procedure: as §1

[17] = system: Pasteurella multocida 40G; assay: broth-dilution microtiter MIC test; assay type: cell-based; settings: Pasteurella multocida, 40G; broth-dilution microtiter; read-out: MIC
Procedure: as §1

[18] = system: Mycoplasma gallisepticum 36H; assay: broth-dilution microtiter MIC test; assay type: cell-based; settings: Mycoplasmoides gallisepticum, 36H
Procedure: as §1

[19] = system: Staphylococcus epidermidis EP12; assay: standard agar-dilution MIC assay; assay type: cell-based
Procedure: as §1

[20] = system: Klebsiella pneumoniae X68; assay: standard agar-dilution MIC assay; assay type: cell-based; settings: Klebsiella pneumoniae, X68; agar-dilution; read-out: MIC
Procedure: as §1

[21] = system: Escherichia coli EC14; assay: standard agar-dilution MIC assay; assay type: cell-based; settings: agar-dilution, read-out: MIC
Procedure: as §1

[22] = system: Staphylococcus epidermidis EPI1; assay: standard agar-dilution MIC assay; assay type: cell-based; settings: Staphylococcus epidermidis, EPI1
Procedure: as §1

[23] = system: Haemophilus influenzae C.L.; assay: standard agar-dilution MIC assay; assay type: cell-based; settings: Haemophilus influenzae; agar-dilution; Ampicillin-sensitive strain; read-out: MIC
Procedure: as §1

[24] = system: Staphylococcus aureus X1.1; assay: standard agar-dilution MIC assay; assay type: cell-based; settings: Staphylococcus aureus, X1.1
Procedure: as §1

[25] = system: Staphylococcus aureus X400; assay: standard agar-dilution MIC assay; assay type: cell-based; settings: Staphylococcus aureus, X400
Procedure: as §1

[26] = system: Streptococcus Group D 9960; assay: standard agar-dilution MIC assay; assay type: cell-based; settings: GROUPD9960, read-out: MIC
Procedure: as §1

[27] = system: Streptococcus pyogenes C203; assay: standard agar-dilution MIC assay; assay type: cell-based; settings: Streptococcus pyogenes, C203
Procedure: as §1

[28] = system: Pseudomonas aeruginosa X239; assay: standard agar-dilution MIC assay; assay type: cell-based; settings: Pseudomonas aeruginosa, X239; agar-dilution; read-out: MIC
Procedure: as §1

[29] = system: Staphylococcus aureus V41; assay: standard agar-dilution MIC assay; assay type: cell-based; settings: Staphylococcus aureus, V41
Procedure: as §1

[30] = system: Streptococcus Group D X66; assay: standard agar-dilution MIC assay; assay type: cell-based; settings: read-out: MIC
Procedure: as §1

[31] = system: Haemophilus influenzae 76; assay: standard agar-dilution MIC assay; assay type: cell-based; settings: Haemophilus influenzae, 76; agar-dilution; Ampicillin-resistant strain; read-out: MIC
Procedure: as §1

[32] = system: Streptococcus pyogenes C203; assay: protection of mice experimentally infected with S. pyogenes C203; assay type: in vivo; settings: mice, mg/kg × 2, doses given 1 and 4 hours postinfection, read-out: ED50
Procedure: The formula 1 compounds have shown in vivo antimicrobial activity against experimentally-induced infections in laboratory animals. When two doses of test compound were administered to mice experimentally infected with S. pyrogenes C203, the activity observed was measured as an ED50 value [effective dose in mg/kg to protect 50% of the test animals: see Warren Wick, et al., J. Bacteriol. 81, 233-235 (1961)].
^a mg/kg × 2; doses given 1 and 4 hours postinfection

SMILES	MIC [1] [µg/mL]	MIC [2] [µg/mL]	MIC [3] [µg/mL]	MIC [4] [µg/mL]	MIC [5] [µg/mL]	MIC [6] [µg/mL]	MIC [7] [µg/mL]	MIC [8] [µg/mL]	MIC [9] [µg/mL]	MIC [10] [µg/mL]	MIC [11] [µg/mL]	MIC [12] [µg/mL]	MIC [13] [µg/mL]	MIC [14] [µg/mL]	MIC [15] [µg/mL]	MIC [16] [µg/mL]	MIC [17] [µg/mL]	MIC [18] [µg/mL]	MIC [19] [µg/mL]	MIC [20] [µg/mL]	other results
CCC1OC(=O)CC(O)C(C)C(OC2OC(C)C(OC3CC(C)(O)C(O)C(C)O3)C(N(C)C)C2OC(C)=O)C(CC=O)CC(C)C(=O)C=CC(C)=CC1COC1OC(C)C(OC(=O)COc2ccccc2)C(OC(=O)COc2ccccc2)C1OC (stereo not shown) [Compound 15, 2'-O-Acetyl-3'",4'"-di-O-phenoxyacetyl-macrocin]	0.5 (≈ 0.412 µM)	32 (≈ 26.4 µM)	3.12 (≈ 2.57 µM)	6.25 (≈ 5.16 µM)	50 (≈ 41.2 µM)	6.25 (≈ 5.16 µM)	> 50	> 50	> 50	25 (≈ 20.6 µM)	> 50	> 50	> 50	> 50	> 50	3.12 (≈ 2.57 µM)	> 50	50 (≈ 41.2 µM)	32 (≈ 26.4 µM)	> 128	MIC [21]: > 128 µg/mL; MIC [22]: 32 µg/mL (≈ 26.4 µM); MIC [23]: > 128 µg/mL; MIC [24]: 4 µg/mL (≈ 3.3 µM); MIC [25]: 64 µg/mL (≈ 52.8 µM); MIC [26]: 32 µg/mL (≈ 26.4 µM); MIC [27]: 4 µg/mL (≈ 3.3 µM); MIC [28]: > 128 µg/mL; MIC [29]: 8 µg/mL (≈ 6.6 µM); MIC [30]: 32 µg/mL (≈ 26.4 µM); MIC [31]: > 128 µg/mL; ED50 ([32]; C203, Oral): 87.1 mg/kg; ED50 ([32]; C203, sc, Subcutaneous): > 10 mg/kg
CCC1OC(=O)CC(O)C(C)C(OC2OC(C)C(OC3CC(C)(O)C(O)C(C)O3)C(N(C)C)C2OC(C)=O)C(CC=O)CC(C)C(=O)C=CC(C)=CC1COC1OC(C)C(OC(C)=O)C(OC(=O)COc2ccccc2)C1OC (stereo not shown) [Compound 19, 2',4'"-Di-O-acetyl-3'"-O-phenoxyacetyl-macrocin]	0.25 (≈ 0.223 µM)	1 (≈ 0.893 µM)	1.56 (≈ 1.39 µM)	3.12 (≈ 2.78 µM)	25 (≈ 22.3 µM)	0.78 (≈ 0.696 µM)	> 50	> 50	> 50	6.25 (≈ 5.58 µM)	> 50	> 50	> 50	> 50	> 50	0.78 (≈ 0.696 µM)	> 50	50 (≈ 44.6 µM)	1 (≈ 0.893 µM)	> 128	MIC [21]: > 128 µg/mL; MIC [22]: 1 µg/mL (≈ 0.893 µM); MIC [23]: > 128 µg/mL; MIC [24]: 1 µg/mL (≈ 0.893 µM); MIC [25]: 2 µg/mL (≈ 1.79 µM); MIC [26]: 2 µg/mL (≈ 1.79 µM); MIC [27]: 0.5 µg/mL (≈ 0.446 µM); MIC [28]: > 128 µg/mL; MIC [29]: 1 µg/mL (≈ 0.893 µM); MIC [30]: 2 µg/mL (≈ 1.79 µM); MIC [31]: > 128 µg/mL
